Data taken from ChEMBL document CHEMBL1201862, “PubChem BioAssay data set” (2004).
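Interpolation was linear, between the two tested concentrations surrounding the appropriate level; five concentrations were tested over 48 hours in 96-well plates. GI50 = concentration required for 50% inhibition of growth.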 Calls of active or inactive are those of the source. Rule as the data show it: active = GI50 up to about 1.1 µM and inactive = higher.

Legend:
Assay in all cases: inhibition of tumour cell growth, NCI panel, 48 h
EKVX = system: EKVX
HCT-116 = system: HCT-116
HL-60 = system: HL-60
HOP-92 = system: HOP-92
K562 = system: K562
M14 = system: M14
MOLT-4 = system: MOLT-4
OVCAR-3 = system: OVCAR-3
OVCAR-5 = system: OVCAR-5
SF-268 = system: SF-268
SF-295 = system: SF-295
SK-MEL-2 = system: SK-MEL-2
SK-OV-3 = system: SK-OV-3
SNB-19 = system: SNB-19
SNB-75 = system: SNB-75
CAKI-1 = system: CAKI-1
KM12 = system: KM12

Measured: GI50

C(=C\c1c2oc(-c3ccccc3)cc(-c3ccccc3)c-2c2ccccc12)/C=C1\c2ccccc2-c2c(-c3ccccc3)cc(-c3ccccc3)[o+]c21.[O-][Cl+3]([O-])([O-])[O-]
inactive: EKVX > 100 µM | HCT-116 > 100 µM | HL-60 > 100 µM | HOP-92 > 100 µM | K562 > 100 µM | M14 37 µM | MOLT-4 > 100 µM | OVCAR-3 > 100 µM | OVCAR-5 > 100 µM | SF-268 > 100 µM | SF-295 > 100 µM | SK-MEL-2 > 100 µM | SK-OV-3 > 100 µM | SNB-19 > 100 µM | SNB-75 45.9 µM

COc1c(Cl)c(Cl)c(OC)c2c1C(=O)C=CC2=O
inactive: CAKI-1 22.9 µM | EKVX 17.4 µM | HCT-116 17.8 µM | HL-60 2.17 µM | HOP-92 15.3 µM | K562 7.85 µM | KM12 17.5 µM | M14 19.6 µM | MOLT-4 2.9 µM | OVCAR-3 17.3 µM | OVCAR-5 35.5 µM | SF-268 15.6 µM | SF-295 18.5 µM | SK-MEL-2 17.3 µM | SK-OV-3 76.7 µM | SNB-19 32.1 µM | SNB-75 21.4 µM

CCN(CC)CCC(=O)N1CCc2c([nH]c3ccccc23)C1c1cccnc1 (stereo unspecified)
inactive: CAKI-1 > 100 µM | EKVX > 100 µM | HCT-116 > 100 µM | HL-60 > 100 µM | HOP-92 68.9 µM | K562 > 100 µM | KM12 > 100 µM | M14 > 100 µM | MOLT-4 > 100 µM | OVCAR-3 > 100 µM | OVCAR-5 > 100 µM | SF-268 > 100 µM | SF-295 > 100 µM | SK-OV-3 > 100 µM | SNB-19 > 100 µM | SNB-75 > 100 µM

C=C/C=C(\NC(=O)C(Cl)(Cl)Cl)[Si](C)(C)C
inactive: EKVX > 100 µM | HCT-116 > 100 µM | HL-60 > 100 µM | HOP-92 > 100 µM | K562 > 100 µM | KM12 > 100 µM | M14 > 100 µM | MOLT-4 > 100 µM | OVCAR-3 > 100 µM | OVCAR-5 > 100 µM | SF-268 > 100 µM | SF-295 > 100 µM | SK-MEL-2 > 100 µM | SK-OV-3 > 100 µM | SNB-19 > 100 µM | SNB-75 > 100 µM

CCOC(=O)C(C(O)c1ccc([N+](=O)[O-])cc1)P(=O)(OCC)OCC (stereo unspecified)
inactive: CAKI-1 > 100 µM | EKVX > 100 µM | HCT-116 > 100 µM | HL-60 16.7 µM | HOP-92 34 µM | K562 31.3 µM | KM12 > 100 µM | M14 > 100 µM | MOLT-4 57.9 µM | OVCAR-3 > 100 µM | OVCAR-5 > 100 µM | SF-268 > 100 µM | SF-295 > 100 µM | SK-MEL-2 > 100 µM | SNB-19 > 100 µM | SNB-75 35.4 µM

CC(C)N1CC2CC(CN(C(=O)c3ccc(Cl)cc3)C2)C1
inactive: CAKI-1 > 100 µM | EKVX > 100 µM | HL-60 > 100 µM | HOP-92 > 100 µM | K562 > 100 µM | KM12 > 100 µM | M14 > 100 µM | MOLT-4 > 100 µM | OVCAR-3 > 100 µM | OVCAR-5 > 100 µM | SF-268 > 100 µM | SF-295 > 100 µM | SK-MEL-2 > 100 µM | SK-OV-3 > 100 µM | SNB-19 > 100 µM | SNB-75 > 100 µM
